# Measured values published in PubChem BioAssay AID256 (DTP/NCI, 2004).
# Where “and” joins values, the source holds several entries; their conditions need not be identical. Identical values can stand only once. Inconclusive results and toxic doses are left out. Starred links: 1 amine or outer side, 2 acyl side, 3 side chain; linkers in the order of their positions; H or OH if unused. Positions of bridges follow the written chain, without caps; N, C: chain ends. Non-standard residues stand in square brackets, D forms with d. Residues, ends and D or L forms follow the SMILES beside them. Chains are numbered I, II in the order given. Actinocin(1to9) = Cc1c2oc3c(C)ccc(C(=O)[*:2])c3nc-2c(C(=O)[*:1])c(N)c1=O; NMeV = CN[CH](C(=O)O)C(C)C; Aze = O=C(O)[CH]1CCN1; Sar = CNCC(=O)O
# System: CD2F1 mice, L1210 leukemia ip, survival T/C
# Experiment: NCI In Vivo Anticancer Drug Screen. Data for tumor model L1210 Leukemia (intraperitoneal) in CD2F1 (CDF1) mice
# Settings: higher = longer survival
# Outline: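 Ratio T/C, where T is the treated-group value and C the vehicle-dosed control value, from mice implanted with a transplantable tumor.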
# [1] = endpoint: mean survival time, dose: 100.0 mg/kg/injection, schedule: Q04DX003 (ip), vehicle: saline with Tween-80
# [2] = endpoint: mean survival time, dose: 200.0 mg/kg/injection, schedule: Q04DX003 (ip), vehicle: saline with Tween-80
# [3] = endpoint: mean survival time, dose: 50.0 mg/kg/injection, schedule: Q04DX003 (ip), vehicle: saline with Tween-80
# [4] = endpoint: mean survival time, dose: 100.0 mg/kg/injection, schedule: Q01DX009 (ip), vehicle: saline with Tween-80
# [5] = endpoint: mean survival time, dose: 200.0 mg/kg/injection, schedule: Q01DX009 (ip), vehicle: saline with Tween-80
# [6] = endpoint: mean survival time, dose: 100.0 mg/kg/injection, schedule: Q04DX002 (ip), vehicle: saline with Tween-80
# [7] = endpoint: mean survival time, dose: 200.0 mg/kg/injection, schedule: Q04DX002 (ip), vehicle: saline with Tween-80
# [8] = endpoint: mean survival time, dose: 25.0 mg/kg/injection, schedule: Q04DX003 (ip), vehicle: Klucel (hydroxypropylcellulose) (HPC)
# [9] = endpoint: mean survival time, dose: 50.0 mg/kg/injection, schedule: Q04DX003 (ip), vehicle: Klucel (hydroxypropylcellulose) (HPC)
# [10] = endpoint: mean survival time, dose: 400.0 mg/kg/injection, schedule: Q01DX009 (ip), vehicle: saline with Tween-80
compound,measurement,setting,value
C[C@]12C=CC(=O)C=C1CC[C@@H]1[C@@H]2[C@@H](O)C[C@@]2(C)[C@H]1CC[C@]2(O)C(=O)CO,T/C,"endpoint: mean survival time, dose: 12.5 mg/kg/injection, schedule: Q01DX010 (sc), vehicle: steriod suspending solution",108 % of control
same,T/C,"endpoint: mean survival time, dose: 25.0 mg/kg/injection, schedule: Q01DX009 (sc), vehicle: steriod suspending solution",106 % of control and 109 % of control
same,T/C,"endpoint: mean survival time, dose: 25.0 mg/kg/injection, schedule: Q01DX010 (sc), vehicle: steriod suspending solution",108 % of control
same,T/C,"endpoint: mean survival time, dose: 50.0 mg/kg/injection, schedule: Q01DX009 (sc), vehicle: steriod suspending solution",113 % of control and 106 % of control
same,T/C,"endpoint: mean survival time, dose: 50.0 mg/kg/injection, schedule: Q01DX010 (sc), vehicle: steriod suspending solution",112 % of control
same,T/C,"endpoint: mean survival time, dose: 100.0 mg/kg/injection, schedule: Q01DX009 (sc), vehicle: steriod suspending solution",116 % of control
same,T/C,"endpoint: mean survival time, dose: 100.0 mg/kg/injection, schedule: Q01DX010 (sc), vehicle: steriod suspending solution",108 % of control
same,T/C,"endpoint: mean survival time, dose: 200.0 mg/kg/injection, schedule: Q01DX009 (sc), vehicle: steriod suspending solution",113 % of control and 116 % of control
CC1CCN(Cc2c(COc3ccc(Cl)cc3)n(C)c3ccccc23)CC1,T/C,[1],87 % of control
same,T/C,[2],93 % of control
same,T/C,"endpoint: mean survival time, dose: 400.0 mg/kg/injection, schedule: Q04DX003 (ip), vehicle: saline with Tween-80",94 % of control
O=C(O)Cc1ccccc1C(=O)O.[NH-]C1CCCCC1[NH-].[Pt+2],T/C,"endpoint: median survival time, dose: 3.12 mg/kg/injection, schedule: Q04DX003 (ip), vehicle: saline",102 % of control and 108 % of control
same,T/C,"endpoint: median survival time, dose: 6.25 mg/kg/injection, schedule: Q04DX003 (ip), vehicle: saline",103 % of control and 108 % of control
same,T/C,"endpoint: median survival time, dose: 12.5 mg/kg/injection, schedule: Q04DX003 (ip), vehicle: saline",109 % of control and 110 % of control
same,T/C,"endpoint: median survival time, dose: 25.0 mg/kg/injection, schedule: Q04DX003 (ip), vehicle: saline",105 % of control and 109 % of control
same,T/C,"endpoint: median survival time, dose: 50.0 mg/kg/injection, schedule: Q04DX003 (ip), vehicle: saline",117 % of control and 112 % of control
COC(=O)C(Br)CCC(Br)C(=O)OC (centres undefined),T/C,[3],94 % of control
same,T/C,[4],95 % of control
same,T/C,[1],94 % of control
same,T/C,[5],103 % of control
same,T/C,[2],94 % of control
NC(=S)Nc1ccccc1[N+](=O)[O-],T/C,[3],103 % of control and 104 % of control
same,T/C,"endpoint: mean survival time, dose: 100.0 mg/kg/injection, schedule: Q01DX001 (ip), vehicle: saline with Tween-80",101 % of control
same,T/C,[6],95 % of control
same,T/C,[1],97 % of control and 101 % of control
same,T/C,"endpoint: mean survival time, dose: 200.0 mg/kg/injection, schedule: Q01DX001 (ip), vehicle: saline with Tween-80",102 % of control
same,T/C,[7],93 % of control
same,T/C,[2],97 % of control and 111 % of control
CC1=C(/C=C/C(=O)O)C(C)(C)CCC1,T/C,[6],92 % of control
same,T/C,[7],96 % of control
same,T/C,"endpoint: mean survival time, dose: 400.0 mg/kg/injection, schedule: Q04DX002 (ip), vehicle: saline with Tween-80",92 % of control
COc1cccc(C(=O)c2ccncc2C(=O)O)c1OC,T/C,"endpoint: mean survival time, dose: 12.5 mg/kg/injection, schedule: Q01DX009 (ip), vehicle: other",110 % of control
same,T/C,"endpoint: mean survival time, dose: 25.0 mg/kg/injection, schedule: Q01DX009 (ip), vehicle: other",100 % of control
same,T/C,"endpoint: mean survival time, dose: 50.0 mg/kg/injection, schedule: Q01DX009 (ip), vehicle: other",93 % of control
same,T/C,"endpoint: mean survival time, dose: 100.0 mg/kg/injection, schedule: Q01DX009 (ip), vehicle: other",96 % of control
same,T/C,"endpoint: mean survival time, dose: 200.0 mg/kg/injection, schedule: Q01DX009 (ip), vehicle: other",96 % of control
COC1C(CO)OC(n2c3c(Cl)cccc3c3c4c(c5c6cccc(Cl)c6[nH]c5c32)C(=O)NC4=O)C(O)C1O (centres undefined),T/C,"endpoint: median survival time, dose: 12.5 mg/kg/injection, schedule: Q01DX009 (ip), vehicle: distilled water + Tween-80",105 % of control and 112 % of control
same,T/C,"endpoint: median survival time, dose: 25.0 mg/kg/injection, schedule: Q01DX009 (ip), vehicle: distilled water + Tween-80",114 % of control
same,T/C,"endpoint: median survival time, dose: 36.0 mg/kg/injection, schedule: Q01DX009 (ip), vehicle: distilled water + Tween-80",113 % of control
same,T/C,"endpoint: median survival time, dose: 50.0 mg/kg/injection, schedule: Q01DX009 (ip), vehicle: distilled water + Tween-80",112 % of control
same,T/C,"endpoint: median survival time, dose: 60.0 mg/kg/injection, schedule: Q01DX009 (ip), vehicle: distilled water + Tween-80",115 % of control
same,T/C,"endpoint: median survival time, dose: 100.0 mg/kg/injection, schedule: Q01DX009 (ip), vehicle: distilled water + Tween-80",121 % of control and 103 % of control
same,T/C,"endpoint: median survival time, dose: 166.7 mg/kg/injection, schedule: Q01DX009 (ip), vehicle: distilled water + Tween-80",122 % of control
same,T/C,"endpoint: median survival time, dose: 200.0 mg/kg/injection, schedule: Q01DX009 (ip), vehicle: distilled water + Tween-80",95 % of control
"Cc1c2oc3c(C)ccc(C(=O)NC4C(=O)NC(C(C)C)C(=O)N5CCCC5C(=O)N(C)CC(=O)N(C)C(C(C)C)C(=O)OC4C)c3nc-2c(C(=O)NC2C(=O)NC(C(C)C)C(=O)N3CCC3C(=O)N(C)CC(=O)N(C)C(C(C)C)C(=O)OC2C)c(N)c1=O (centres undefined) (I: TV[Aze][Sar][NMeV] / II: TVP[Sar][NMeV]; ester I:1-I:C, II:1-II:C; linker I:N-II:N via Actinocin(1to9); configuration not given here)",T/C,"endpoint: mean survival time, dose: 37.0 micrograms/kg/injection, schedule: Q01DX009 (ip), vehicle: saline + alcohol",103 % of control
same,T/C,"endpoint: mean survival time, dose: 75.0 micrograms/kg/injection, schedule: Q01DX009 (ip), vehicle: saline + alcohol",117 % of control
same,T/C,"endpoint: mean survival time, dose: 300.0 micrograms/kg/injection, schedule: Q01DX009 (ip), vehicle: saline + alcohol",151 % of control
same,T/C,"endpoint: mean survival time, dose: 600.0 micrograms/kg/injection, schedule: Q01DX009 (ip), vehicle: saline + alcohol",109 % of control
same,T/C,"endpoint: median survival time, dose: 12.5 micrograms/kg/injection, schedule: Q01DX009 (ip), vehicle: saline",108 % of control
same,T/C,"endpoint: median survival time, dose: 25.0 micrograms/kg/injection, schedule: Q01DX009 (ip), vehicle: saline",115 % of control
same,T/C,"endpoint: median survival time, dose: 50.0 micrograms/kg/injection, schedule: Q01DX009 (ip), vehicle: saline",115 % of control
same,T/C,"endpoint: median survival time, dose: 100.0 micrograms/kg/injection, schedule: Q01DX009 (ip), vehicle: saline",123 % of control
same,T/C,"endpoint: median survival time, dose: 200.0 micrograms/kg/injection, schedule: Q01DX009 (ip), vehicle: saline",150 % of control
same,T/C,"endpoint: median survival time, dose: 400.0 micrograms/kg/injection, schedule: Q01DX009 (ip), vehicle: saline",91 % of control
Cn1c(=S)sc2ccccc21,T/C,[8],101 % of control
same,T/C,[9],109 % of control
same,T/C,[1],110 % of control
CC1CC[N-]CC1.CC1CC[N-]CC1.CS(C)=O.[Cl][Rh]([Cl])[Cl],T/C,[1],96 % of control
CCN(CC)c1ccc(-c2nc3ccccc3s2)cc1,T/C,"endpoint: mean survival time, dose: 50.0 mg/kg/injection, schedule: Q01DX009 (ip), vehicle: Klucel (hydroxypropylcellulose) (HPC)",106 % of control
same,T/C,"endpoint: mean survival time, dose: 100.0 mg/kg/injection, schedule: Q01DX009 (ip), vehicle: Klucel (hydroxypropylcellulose) (HPC)",98 % of control
same,T/C,"endpoint: mean survival time, dose: 200.0 mg/kg/injection, schedule: Q01DX009 (ip), vehicle: Klucel (hydroxypropylcellulose) (HPC)",102 % of control
COc1ccc2c3c(ccc2c1)C1CCC(=O)C1(C)CC3 (centres undefined),T/C,[4],102 % of control
same,T/C,[5],96 % of control
same,T/C,[10],98 % of control
Cc1ccc(S(=O)(=O)OC2CCCCCCCCCCC2=O)cc1 (centres undefined),T/C,"endpoint: mean survival time, dose: 50.0 mg/kg/injection, schedule: Q04DX003 (ip), vehicle: other",97 % of control
same,T/C,"endpoint: mean survival time, dose: 100.0 mg/kg/injection, schedule: Q04DX003 (ip), vehicle: other",93 % of control and 95 % of control
same,T/C,"endpoint: mean survival time, dose: 200.0 mg/kg/injection, schedule: Q04DX003 (ip), vehicle: other",93 % of control
same,T/C,"endpoint: mean survival time, dose: 400.0 mg/kg/injection, schedule: Q04DX003 (ip), vehicle: other",95 % of control
COc1cccc(N=C(N)N=C(N)N)c1,T/C,"endpoint: mean survival time, dose: 100.0 mg/kg/injection, schedule: Q01DX009 (ip), vehicle: saline",95 % of control
same,T/C,"endpoint: mean survival time, dose: 200.0 mg/kg/injection, schedule: Q01DX009 (ip), vehicle: saline",90 % of control
N#Cc1c(F)c(F)c(Oc2c(F)c(F)c(F)c(F)c2F)c(F)c1F,T/C,[1],94 % of control
same,T/C,[2],91 % of control
O=C(O)CSc1cc(Cl)ccc1Cl,T/C,"endpoint: mean survival time, dose: 12.5 mg/kg/injection, schedule: Q04DX003 (ip), vehicle: Klucel (hydroxypropylcellulose) (HPC)",95 % of control
same,T/C,[8],98 % of control
same,T/C,[9],100 % of control
same,T/C,"endpoint: mean survival time, dose: 100.0 mg/kg/injection, schedule: Q04DX003 (ip), vehicle: Klucel (hydroxypropylcellulose) (HPC)",100 % of control
CN(C)C(=O)C(=O)C1C=Cc2ccccc21 (centres undefined),T/C,[4],98 % of control
same,T/C,[5],103 % of control
same,T/C,[10],93 % of control
